Earlier results as cited in patent US20190151234A1, “STABLE LIQUID PHARMACEUTICAL FORMULATIONS OF BENDAMUSTINE” (priority 2016, published 2019).
Like-named read-outs stand apart in the source and are kept apart here.

Details: for time stable: 0.25 mg/ml in 0.9% sodium chloride, Pharmazie 1994

Question: For `Cl.Cn1c(CCCC(=O)O)nc2cc(N(CCCl)CCCl)ccc21` [Bendamustine HCl, Bendamustine hydrochloride], which time stable (at 4° C.) is on record?
Answer: 5 days

Question: What about the time stable (at 23° C.) of the same compound?
Answer: 0.38 days

Question: And the “stability in aqueous solutions” value (aqueous solutions, per U.S. Pat. Nos. 8,609,707, 9,265,831)?
Answer: limited to few hours
